“Also recorded” adds a separate entry of the source.
How the values were obtained:
[1] = humans; cited from earlier work
[2] = tested on: dopamine uptake (synaptosomes from rat brain); assay: blockade of dopamine uptake by synaptosomes from rat brain, in vitro, radioactive labelled compounds; assay type: biochemical; details: dopamine 0.2 μM
Excerpt: (§1) This blockade is shown both in vitro with radioactive labelled compounds to determine the amount of monoamine uptake by synaptosomes from rat brain, and in vivo by a variety of methods. Among the physiologically active monoamines whose uptake is blocked by the compounds of this invention are included particularly serotonin (5HT) and norepinephrine(3,4-dihydroxyphenylethanolamine). […] Tables 1 and 2 which follow set forth the results of some of the in vitro determinations of the blockade of monoamine uptake by the compounds of this invention. In the tables, column 1 gives the R substituent on the 3-phenylpropylamine and columns 2-4, the concentration in micrograms per ml. that blocks the uptake by 50 percent of the monoamines--norepinephrine, serotonin, and dopamine. At the head of each column is given the concentration of the particular monoamine used in the experiment.

[3] = tested on: norepinephrine uptake (synaptosomes from rat brain); assay: blockade of norepinephrine uptake by synaptosomes from rat brain, in vitro, radioactive labelled compounds; assay type: biochemical; details: norepinephrine 0.48 μM
Excerpt: as §1

[4] = tested on: serotonin uptake (synaptosomes from rat brain); assay: blockade of serotonin (5HT) uptake by synaptosomes from rat brain, in vitro, radioactive labelled compounds; assay type: biochemical; details: serotonin 0.1 μM
Excerpt: as §1

NE uptake and 5HT uptake = assay: NE/5HT uptake inhibition selectivity; assay type: biochemical, rat; details: for NE/5HT IC50 uptake ratio: ratio NE/5HT
Excerpt: as §1

Row | SMILES | antidepressant effect [1] | Concentration that blocks 50% of dopamine uptake [2] [µg/mL] | Concentration that blocks 50% of norepinephrine uptake [3] | Concentration that blocks 50% of serotonin uptake [4] | uptake inhibition selectivity in words (NE uptake and 5HT uptake; 5HT vs NE, listed as IV) | NE/5HT IC50 uptake ratio (NE uptake and 5HT uptake)
1 | CNCCC(Oc1ccc(C(F)(F)F)cc1)c1ccccc1 (stereo not drawn) [fluoxetine, 3-phenyl-3-(p-trifluoromethyl)phenoxypropyl methylamine] | highly potent antidepressant in humans | – | – | – | – | –
2 | Cc1ccccc1OC(CCN(C)C)c1ccccc1 (stereo not drawn) [o-tolyloxy, 3-o-tolyloxy-3-phenylpropyl dimethylamine] | – | 0.8 | .35 µg/mL | 2 µg/mL | selective NE uptake inhibitors; also recorded: blocks NE preferentially | .5
3 | CN(C)CCC(Oc1ccc(Cl)cc1)c1ccccc1 (stereo not drawn) [p-chlorophenoxy, N,N-dimethyl 3-phenyl-3-(p-chlorophenoxy)-propylamine] | – | 1.3 | .3 µg/mL | .03 µg/mL | – | 9.88
4 | Cc1ccc(OC(CCN(C)C)c2ccccc2)cc1 (stereo not drawn) [p-tolyloxy, N,N-dimethyl 3-(p-tolyloxy)-3-phenylpropylamine] | – | > 100 | .015 µg/mL | .4 µg/mL | – | 5.83
5 | CN(C)CCC(Oc1ccc(C(F)(F)F)cc1)c1ccccc1 (stereo not drawn) [p-trifluoromethylphenyloxy, N,N-dimethyl-3-(p-trifluoromethylphenoxy)-3-phenylpropylamine] | – | > 100 | 70 µg/mL | .16 µg/mL | – | 7.19
